This note sets out measurements from ChEMBL document CHEMBL1201862, “PubChem BioAssay data set” (2004).

Active and inactive are the calls of the source.

Assay [1] has as its system INS1. In words: protection of INS-1E cells from cytokine death, dose response, ATP luminescence, dry powder (AID 488844). It is filed as functional, cell-based. Conditions: Rattus norvegicus.
A short description of assay [2]: inhibitors of cytokine-induced nitrite release, dose response, cell-based, Griess absorbance, INS-1E, dry powder, set 3 (AID 488870). It counts as functional. The settings on record: Rattus norvegicus.
The subject of assay [3] is INS1. Briefly: inhibitors of cytokine-induced nitrite release, dose response, cell-based, Griess absorbance, INS-1E, dry powder, set 2 (AID 488868). It is filed as functional. The settings on record: Rattus norvegicus. For orientation: Griess reagent forms a coloured azo dye with nitrite.
Assay [4] concerns INS1. Briefly: protection from cytokine-induced mitochondrial depolarization, dose response, cell-based, INS-1E, JC-1 fluorescence ratio, dry powder (AID 488931). It counts as functional. The settings on record: Rattus norvegicus.
Assay [5] has as its target T1, Apoptotic protease-activating factor 1 (Homo sapiens, UniProt O14727). In words: SAR analysis of small molecule inhibitors of Apaf-1 in a Fluorescent assay. It is filed as functional. The settings on record: read-out: IC50_Mean.
Assay [6] deals with T1, Apoptotic protease-activating factor 1. It is filed as functional.
The target in assay [7] is T2, Fatty acid synthase (Homo sapiens, UniProt P49327). Briefly: FAS thioesterase domain inhibitors, dose response, biochemical, endpoint fluorescence intensity, uHTS hits (AID 624327).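 Note: fluorescence from hydrolysis of an O-methyl fluorescein acyl ester substrate by the enzyme.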 It counts as functional.
Assay [8] addresses T2, Fatty acid synthase. In words: FAS thioesterase domain inhibitors, dose response, biochemical, kinetic fluorescence intensity (AID 624326).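 Note: rate of fluorescence rise from hydrolysis of a fluorogenic O-methyl fluorescein ester substrate.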 It counts as functional.
Assay [9] has as its target Casein kinase I isoform alpha (Homo sapiens, UniProt P48729). It is filed as functional.
A further assay concerns the target Focal adhesion kinase 1 (Homo sapiens, UniProt Q05397). It is filed as functional.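 Note: measured as one member of a kinome panel.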
Assay [10] has as its target Dual specificity protein kinase CLK4 (Homo sapiens, UniProt Q9HAZ1). It counts as functional.
For assay [11], the target named is DNA dC->dU-editing enzyme APOBEC-3G (Homo sapiens, UniProt Q9HC16). Briefly: APOBEC3G deaminase inhibitors, SAR follow-up, biochemical, fluorescence, single-stranded DNA substrate (AID 602136). It counts as functional. The settings on record: read-out: IC50_Mean.
Assay [12] deals with DNA dC->dU-editing enzyme APOBEC-3A (Homo sapiens, UniProt P31941). Briefly: SAR analysis of small molecule inhibitors of APOBEC3A DNA Deaminase via a fluorescence-based single-stranded DNA deaminase assay. It counts as functional. The settings on record: read-out: IC50_Mean.

T1 sequence (O14727 whole entry): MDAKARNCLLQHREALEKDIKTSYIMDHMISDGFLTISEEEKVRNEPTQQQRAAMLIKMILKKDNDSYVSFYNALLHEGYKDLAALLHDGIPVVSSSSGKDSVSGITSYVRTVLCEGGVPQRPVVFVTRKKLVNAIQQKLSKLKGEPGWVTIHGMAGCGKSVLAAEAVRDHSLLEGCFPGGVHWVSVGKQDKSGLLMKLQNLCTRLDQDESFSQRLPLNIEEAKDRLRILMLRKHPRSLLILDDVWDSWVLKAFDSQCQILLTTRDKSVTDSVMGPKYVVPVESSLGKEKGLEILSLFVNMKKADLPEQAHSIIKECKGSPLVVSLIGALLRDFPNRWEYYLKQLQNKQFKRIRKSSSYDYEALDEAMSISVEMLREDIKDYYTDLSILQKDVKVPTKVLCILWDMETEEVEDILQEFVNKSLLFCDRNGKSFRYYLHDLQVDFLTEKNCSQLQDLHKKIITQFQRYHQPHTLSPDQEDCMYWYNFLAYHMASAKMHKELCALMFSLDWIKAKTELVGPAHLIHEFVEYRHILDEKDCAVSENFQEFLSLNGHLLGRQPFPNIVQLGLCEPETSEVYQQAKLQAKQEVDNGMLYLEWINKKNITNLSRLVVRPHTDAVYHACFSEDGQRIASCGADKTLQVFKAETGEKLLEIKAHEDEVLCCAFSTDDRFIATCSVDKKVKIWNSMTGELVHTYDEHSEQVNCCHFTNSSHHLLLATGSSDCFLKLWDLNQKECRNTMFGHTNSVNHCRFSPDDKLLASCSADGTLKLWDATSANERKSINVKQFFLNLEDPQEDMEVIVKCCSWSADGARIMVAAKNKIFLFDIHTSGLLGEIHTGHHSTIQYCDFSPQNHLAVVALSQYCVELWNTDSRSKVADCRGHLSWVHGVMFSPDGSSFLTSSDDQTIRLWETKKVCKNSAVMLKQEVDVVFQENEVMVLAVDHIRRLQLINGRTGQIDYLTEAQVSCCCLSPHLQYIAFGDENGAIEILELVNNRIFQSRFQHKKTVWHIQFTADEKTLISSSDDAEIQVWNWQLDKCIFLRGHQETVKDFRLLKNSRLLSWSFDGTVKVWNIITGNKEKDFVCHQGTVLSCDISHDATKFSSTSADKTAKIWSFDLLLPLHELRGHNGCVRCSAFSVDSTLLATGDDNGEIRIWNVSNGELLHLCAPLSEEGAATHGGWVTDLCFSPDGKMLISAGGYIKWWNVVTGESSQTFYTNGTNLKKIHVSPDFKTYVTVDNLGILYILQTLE
T2 sequence (P49327 whole entry, the tested form may be a part): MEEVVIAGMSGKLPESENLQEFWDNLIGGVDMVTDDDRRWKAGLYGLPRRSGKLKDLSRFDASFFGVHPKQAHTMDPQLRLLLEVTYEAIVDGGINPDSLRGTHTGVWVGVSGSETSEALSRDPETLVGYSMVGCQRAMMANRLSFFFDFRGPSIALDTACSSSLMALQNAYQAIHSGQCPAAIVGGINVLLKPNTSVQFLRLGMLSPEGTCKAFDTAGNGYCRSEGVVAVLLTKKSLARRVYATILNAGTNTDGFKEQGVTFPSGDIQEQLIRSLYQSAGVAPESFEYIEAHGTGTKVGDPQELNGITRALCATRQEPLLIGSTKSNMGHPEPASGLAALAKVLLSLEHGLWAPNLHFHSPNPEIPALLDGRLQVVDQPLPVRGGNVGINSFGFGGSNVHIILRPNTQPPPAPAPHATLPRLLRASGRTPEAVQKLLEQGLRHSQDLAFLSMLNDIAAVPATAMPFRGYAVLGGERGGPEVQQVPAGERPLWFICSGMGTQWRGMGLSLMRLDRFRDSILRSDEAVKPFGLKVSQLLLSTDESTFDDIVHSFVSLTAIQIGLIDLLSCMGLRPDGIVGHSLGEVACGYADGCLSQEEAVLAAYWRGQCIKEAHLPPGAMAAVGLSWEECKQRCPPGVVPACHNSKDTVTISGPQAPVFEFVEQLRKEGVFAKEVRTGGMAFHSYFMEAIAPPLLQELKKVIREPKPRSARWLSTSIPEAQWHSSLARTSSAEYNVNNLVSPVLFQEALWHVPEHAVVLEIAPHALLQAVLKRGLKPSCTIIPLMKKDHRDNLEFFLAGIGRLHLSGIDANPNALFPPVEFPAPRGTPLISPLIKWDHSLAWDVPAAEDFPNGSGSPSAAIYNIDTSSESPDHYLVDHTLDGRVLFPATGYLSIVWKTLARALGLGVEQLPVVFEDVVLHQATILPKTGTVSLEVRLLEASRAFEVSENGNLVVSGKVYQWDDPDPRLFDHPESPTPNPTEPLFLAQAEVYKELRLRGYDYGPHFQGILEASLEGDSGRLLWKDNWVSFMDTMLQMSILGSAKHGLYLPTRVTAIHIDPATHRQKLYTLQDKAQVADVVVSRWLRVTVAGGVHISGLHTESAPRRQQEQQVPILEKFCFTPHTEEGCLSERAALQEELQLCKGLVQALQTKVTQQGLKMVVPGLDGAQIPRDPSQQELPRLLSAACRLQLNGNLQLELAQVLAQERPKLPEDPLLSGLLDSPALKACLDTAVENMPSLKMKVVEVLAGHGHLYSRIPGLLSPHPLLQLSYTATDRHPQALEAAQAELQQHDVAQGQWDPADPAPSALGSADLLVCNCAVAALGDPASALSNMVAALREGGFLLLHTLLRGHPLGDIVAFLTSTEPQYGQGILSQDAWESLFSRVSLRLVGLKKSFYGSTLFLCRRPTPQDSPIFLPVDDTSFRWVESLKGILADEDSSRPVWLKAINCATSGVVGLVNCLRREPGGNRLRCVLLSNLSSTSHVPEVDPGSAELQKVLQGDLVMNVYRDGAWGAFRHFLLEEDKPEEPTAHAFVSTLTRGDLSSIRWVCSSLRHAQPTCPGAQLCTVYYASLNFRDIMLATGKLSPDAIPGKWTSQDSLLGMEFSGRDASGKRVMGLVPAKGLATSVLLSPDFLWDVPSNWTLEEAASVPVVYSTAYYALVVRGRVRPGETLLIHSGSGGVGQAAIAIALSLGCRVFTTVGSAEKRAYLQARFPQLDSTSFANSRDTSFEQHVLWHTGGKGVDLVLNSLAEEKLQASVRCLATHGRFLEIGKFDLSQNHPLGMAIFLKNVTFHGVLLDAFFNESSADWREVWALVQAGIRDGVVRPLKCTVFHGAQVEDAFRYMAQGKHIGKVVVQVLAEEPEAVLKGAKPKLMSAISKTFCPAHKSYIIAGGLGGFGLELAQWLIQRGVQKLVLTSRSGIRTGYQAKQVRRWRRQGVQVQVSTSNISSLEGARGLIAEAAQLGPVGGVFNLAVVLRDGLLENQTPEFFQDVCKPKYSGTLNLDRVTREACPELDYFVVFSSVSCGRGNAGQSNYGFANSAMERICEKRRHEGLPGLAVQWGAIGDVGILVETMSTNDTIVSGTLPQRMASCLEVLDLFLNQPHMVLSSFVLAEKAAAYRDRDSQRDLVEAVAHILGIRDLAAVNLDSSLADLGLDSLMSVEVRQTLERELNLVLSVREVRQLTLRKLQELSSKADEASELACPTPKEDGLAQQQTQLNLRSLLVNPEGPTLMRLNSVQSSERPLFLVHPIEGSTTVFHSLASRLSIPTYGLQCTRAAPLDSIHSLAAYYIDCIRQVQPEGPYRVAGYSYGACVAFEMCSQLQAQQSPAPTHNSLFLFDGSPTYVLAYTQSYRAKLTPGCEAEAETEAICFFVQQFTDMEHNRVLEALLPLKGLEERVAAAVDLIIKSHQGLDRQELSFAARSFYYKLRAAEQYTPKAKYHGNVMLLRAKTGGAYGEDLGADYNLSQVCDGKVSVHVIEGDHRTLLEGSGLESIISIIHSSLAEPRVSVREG
Chain of Casein kinase I isoform alpha (P48729 whole entry, canonical isoform): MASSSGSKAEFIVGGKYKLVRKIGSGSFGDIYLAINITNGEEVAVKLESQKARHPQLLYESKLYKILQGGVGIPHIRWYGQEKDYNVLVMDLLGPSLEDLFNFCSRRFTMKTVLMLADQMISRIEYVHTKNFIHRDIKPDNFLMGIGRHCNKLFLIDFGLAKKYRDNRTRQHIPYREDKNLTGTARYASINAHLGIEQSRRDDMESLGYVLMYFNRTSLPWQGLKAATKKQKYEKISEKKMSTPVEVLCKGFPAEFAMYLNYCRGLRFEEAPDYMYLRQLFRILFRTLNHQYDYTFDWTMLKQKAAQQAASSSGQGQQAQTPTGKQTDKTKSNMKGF
Chain of Dual specificity protein kinase CLK4 (Q9HAZ1 whole entry): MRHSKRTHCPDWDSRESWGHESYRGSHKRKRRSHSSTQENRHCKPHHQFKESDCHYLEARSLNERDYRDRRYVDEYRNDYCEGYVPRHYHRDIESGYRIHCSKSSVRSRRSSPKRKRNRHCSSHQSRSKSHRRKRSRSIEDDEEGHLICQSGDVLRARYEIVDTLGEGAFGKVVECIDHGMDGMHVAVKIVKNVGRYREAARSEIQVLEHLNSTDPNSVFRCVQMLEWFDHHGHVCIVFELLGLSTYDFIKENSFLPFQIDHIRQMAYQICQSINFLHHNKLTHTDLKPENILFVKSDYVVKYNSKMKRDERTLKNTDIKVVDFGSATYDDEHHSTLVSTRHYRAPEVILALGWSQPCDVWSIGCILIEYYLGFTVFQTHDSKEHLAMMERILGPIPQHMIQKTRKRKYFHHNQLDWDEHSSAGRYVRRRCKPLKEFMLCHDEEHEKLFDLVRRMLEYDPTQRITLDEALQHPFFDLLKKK
Chain of DNA dC->dU-editing enzyme APOBEC-3G (Q9HC16 whole entry): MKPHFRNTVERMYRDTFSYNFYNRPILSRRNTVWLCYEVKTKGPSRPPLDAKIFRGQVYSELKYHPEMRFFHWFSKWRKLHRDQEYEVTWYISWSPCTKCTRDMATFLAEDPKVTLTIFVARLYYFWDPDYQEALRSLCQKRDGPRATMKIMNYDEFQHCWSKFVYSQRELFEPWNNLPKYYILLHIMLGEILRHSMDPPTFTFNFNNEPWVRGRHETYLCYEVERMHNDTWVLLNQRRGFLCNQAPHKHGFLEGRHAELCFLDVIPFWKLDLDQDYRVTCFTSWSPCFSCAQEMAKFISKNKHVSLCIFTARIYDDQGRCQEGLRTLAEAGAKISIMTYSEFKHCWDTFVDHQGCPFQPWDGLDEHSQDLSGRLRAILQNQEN

For the molecule `COc1ccc(S(=O)(=O)N(C)C[C@@H]2Oc3c(NC(=O)Nc4cccc5ccccc45)cccc3C(=O)N([C@@H](C)CO)C[C@H]2C)cc1F`, the AC50 was 23.2 µM (active) in the assay on INS1 [1], 60.8 µM (active) in assay [2], 26.7 µM (active) with INS1 [3] and > 195 µM (inactive) in the assay on INS1 [4].
As for `CCN(CC)CCOC(=O)c1ccc(N/C=C(\C#N)c2nc(-c3ccc(Cl)c(Cl)c3)cs2)cc1`, the IC50 in [5] was 6.88 µM (active).
On to `CC(C)c1ccc(/C=N/Nc2cc(N3CCOCC3)nc(N3CCOCC3)n2)cc1`, for which the IC50 in assay [6] was 19.1 µM (active); on Fatty acid synthase [7] it was 752 nM (active); on Fatty acid synthase [8], 379 nM (active).
Take `Cc1cc(C(C)Nc2ccccc2)c2nc(N3CCOCC3)cc(=O)n2c1` (stereo not drawn): the Ki in [9] was 2 µM (active); on Focal adhesion kinase 1 it was 2.51 µM (active); in [10] it was 2.51 µM (active).
In the case of `O=C1NC(=S)NC(=O)C1=Cc1ccc2c(c1)CCN2Cc1ccccc1Cl`, the IC50 in [11] is 77.5 µM (inactive); in assay [12], 9.78 µM (active).

The AC50 is the midpoint of the concentration-response curve, whichever way the signal moves. As a reminder, the Ki is the dissociation constant of the complex between target and ligand, obtained from inhibition or displacement.
